# Assay results taken from US12630796B2, “System, device, and method for single-cell encapsulation and culture” (UNIVERSITY OF MARYLAND, COLLEGE PARK, priority 2020, dated 2026).
# Counter-ions that a name gives are not always drawn.
# System: 1csc colony cells obtained from MDA-MB-231 cells
# Assay: In vitro cell viability after drug treatment (CCK-8)
# Type: cell-based, human
# Conditions: 1csc colony cells versus cells from 2Dcells, Ucells and Mcells cultures; 24 hours treatment; FIG. 6A-6B
# Procedure: For 2Dcells culture, human MDA-MB-231, MCF-7, PC-3, and OVCAR-8 cancer cells were cultured in Corning (Lowell, MA, USA) T75 flasks in DMEM, EMEM, F12K, and RPMI-1640 medium supplemented with 10% FBS and 1% penicillin/streptomycin at 37° C. in a humidified 5% CO2 incubator, respectively. For Ucells culture, cells were cultured in Corning (Lowell, MA, USA) 6-well ultralow attachment plate (ULAP) at a density of 20,000 cells ml^−1 in CSC medium consisting of serum-free DMEM/F12 supplemented with 5 μg ml^−1 insulin, 20 ng ml^−1 epidermal growth factor (EGF), 20 ng ml^−1 basic fibroblast growth factor (bFGF), 1×B27 (Invitrogen, Carlsbad, CA, USA), 0.4% (w v^−1) bovine serum albumin, 100 U ml^−1 penicillin, and 100 μg ml^−1 streptomycin. The cell spheroids or aggregates were collected after 7 days for further experiments. For lcsc and Mcells cultures, microcapsules encapsulated with one (for 1csc) or multiple (for Mcells) cells were cultured in the aforementioned CSC medium. To determine viability of cells under 2Dcells culture, cells were transferred into 96-well plates first. […] The cell viability was then evaluated using the CCK-8 cell proliferation reagent per the manufacturer's instructions. Cell viability was calculated as the ratio of the cell number determined for each group with a treatment to that of control group with no treatment.
row,SMILES,resistance of the 1csc colony cells to the drug (cell viability)
1,"COc1cccc2c1C(=O)c1c(O)c3c(c(O)c1C2=O)C[C@@](O)(C(=O)CO)C[C@@H]3O[C@H]1C[C@H](N)[C@H](O)[C@H](C)O1 [DOX, Doxorubicin hydrochloride]",significantly more resistant
2,"CCc1c2c(nc3ccc(OC(=O)N4CCC(N5CCCCC5)CC4)cc13)-c1cc3c(c(=O)n1C2)COC(=O)[C@]3(O)CC [CPT-11, Irinotecan/camptothecin-11]",significantly more resistant
